Data reported in ChEMBL document CHEMBL1201862, “PubChem BioAssay data set” (2004).
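Compound exposure: 48 hours, 5 concentrations, 96-well plates. Here, GI50 denotes the concentration required for 50% inhibition of growth.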 The source made the active and inactive calls. No stated cut-off is given here; in the data, active = GI50 up to about 1.1 µM and inactive = higher.

What was measured:
Assay in all cases: growth of human tumour cells (NCI), 48 h
[1] = test system: SF-539
[2] = test system: NCI/ADR-RES
[3] = test system: OVCAR-5
[4] = test system: HL-60
[5] = test system: SN12C
[6] = test system: SR
[7] = test system: ACHN
[8] = test system: SF-295
[9] = test system: COLO 205
[10] = test system: HOP-62
[11] = test system: MDA-MB-435
[12] = test system: HCC 2998
[13] = test system: SNB-19
[14] = test system: 786-0
[15] = test system: OVCAR-8
[16] = test system: EKVX
[17] = test system: CCRF-CEM
[18] = test system: HT-29
[19] = test system: SK-MEL-2

| SMILES | GI50 [1] | GI50 [2] | GI50 [3] | GI50 [4] | GI50 [5] | GI50 [6] | GI50 [7] | GI50 [8] | GI50 [9] | GI50 [10] | GI50 [11] | GI50 [12] | GI50 [13] | GI50 [14] | GI50 [15] | GI50 [16] | GI50 [17] | GI50 [18] | GI50 [19] |
| --- | --- | --- | --- | --- | --- | --- | --- | --- | --- | --- | --- | --- | --- | --- | --- | --- | --- | --- | --- |
| Cc1cccc(-c2cc(O)c3c(C)cc(C)nc3n2)c1 | 2.75 µM (inactive) | 1.65 µM (inactive) | 5.15 µM (inactive) | 0.838 µM (active) | 8.91 µM (inactive) | 0.38 µM (active) | 8.3 µM (inactive) | 2.72 µM (inactive) | 1.04 µM (active) | 4.52 µM (inactive) | 0.321 µM (active) | 4.9 µM (inactive) | 4.38 µM (inactive) | 4.57 µM (inactive) | 5.58 µM (inactive) | 22 µM (inactive) | 3.45 µM (inactive) | 2.12 µM (inactive) | 2.73 µM (inactive) |
| O=C1NN=C(c2ccc(Cl)cc2)CC1C1C(=O)N(c2ccccc2)N=C1c1ccccc1 (stereo not given) | 25.9 µM (inactive) | 40.6 µM (inactive) | 28.9 µM (inactive) | 37.2 µM (inactive) | 34.4 µM (inactive) | 93.1 µM (inactive) | 29.2 µM (inactive) | 29.9 µM (inactive) | 41.8 µM (inactive) | 32 µM (inactive) | 31.6 µM (inactive) | 26.8 µM (inactive) | 33.8 µM (inactive) | 24.7 µM (inactive) | 41.9 µM (inactive) | 35 µM (inactive) | 26.5 µM (inactive) | 32.9 µM (inactive) | 25.1 µM (inactive) |
| O=C1CSC(c2ccc([N+](=O)[O-])cc2)N1c1ccc(-c2ccc(-n3c(-c4ccccc4)nc4ccccc4c3=O)cc2)cc1 (stereo not given) | > 100 µM (inactive) | 43.9 µM (inactive) | > 100 µM (inactive) | 26.5 µM (inactive) | > 100 µM (inactive) | 18.7 µM (inactive) | 56.5 µM (inactive) | 85.3 µM (inactive) | 43.5 µM (inactive) | > 100 µM (inactive) | 59.7 µM (inactive) | 35.7 µM (inactive) | > 100 µM (inactive) | 70.8 µM (inactive) | 46.9 µM (inactive) | 38.5 µM (inactive) | 25.7 µM (inactive) | 49.7 µM (inactive) | 44.2 µM (inactive) |
| Cn1c2ccccc2c2[nH]c3ccccc3c(=O)c21 | > 100 µM (inactive) | > 100 µM (inactive) | > 100 µM (inactive) | > 100 µM (inactive) | > 100 µM (inactive) | > 100 µM (inactive) | > 100 µM (inactive) | > 100 µM (inactive) | > 100 µM (inactive) | > 100 µM (inactive) | > 100 µM (inactive) | > 100 µM (inactive) | 93.3 µM (inactive) | > 100 µM (inactive) | > 100 µM (inactive) | > 100 µM (inactive) | > 100 µM (inactive) | > 100 µM (inactive) | > 100 µM (inactive) |
| Cc1ccc([N+](=O)[O-])c2c(NCC(O)CO)ccnc12 (stereo not given) | 19.3 µM (inactive) | > 100 µM (inactive) | > 100 µM (inactive) | 32.7 µM (inactive) | 75.3 µM (inactive) | 95.1 µM (inactive) | 57.5 µM (inactive) | 42.1 µM (inactive) | 25.5 µM (inactive) | 73.8 µM (inactive) | 71.6 µM (inactive) | 31.8 µM (inactive) | 90.8 µM (inactive) | 30.5 µM (inactive) | 47 µM (inactive) | 19.8 µM (inactive) | 83.9 µM (inactive) | 30.7 µM (inactive) | 14.3 µM (inactive) |
| CCOC(=O)c1c(N=P(c2ccccc2)(c2ccccc2)c2ccccc2)nnc(-c2ccccc2)c1-c1ccccc1 | > 100 µM (inactive) | > 100 µM (inactive) | > 100 µM (inactive) | > 100 µM (inactive) | > 100 µM (inactive) | > 100 µM (inactive) | > 100 µM (inactive) | > 100 µM (inactive) | > 100 µM (inactive) | > 100 µM (inactive) | > 100 µM (inactive) | > 100 µM (inactive) | 71.3 µM (inactive) | > 100 µM (inactive) | > 100 µM (inactive) | > 100 µM (inactive) | > 100 µM (inactive) | > 100 µM (inactive) | 43.8 µM (inactive) |
| CN(C)CCCN1c2ccc([N+](=O)[O-])cc2CCc2cccc([N+](=O)[O-])c21 | 15.2 µM (inactive) | 13.3 µM (inactive) | 13 µM (inactive) | 18.1 µM (inactive) | 15.1 µM (inactive) | 35.2 µM (inactive) | 17.6 µM (inactive) | 15 µM (inactive) | 12.8 µM (inactive) | 13.8 µM (inactive) | 14.6 µM (inactive) | 13.5 µM (inactive) | 17.5 µM (inactive) | 13.6 µM (inactive) | 17 µM (inactive) | 16.1 µM (inactive) | 16.7 µM (inactive) | 13.7 µM (inactive) | 18.7 µM (inactive) |
| CCOC(=O)CC1(Cc2ccc(OCc3ccccc3)cc2)C(=O)OC(c2ccccc2)N1C(=O)c1ccccc1 (stereo not given) | > 100 µM (inactive) | > 100 µM (inactive) | > 100 µM (inactive) | > 100 µM (inactive) | > 100 µM (inactive) | > 100 µM (inactive) | > 100 µM (inactive) | > 100 µM (inactive) | > 100 µM (inactive) | > 100 µM (inactive) | > 100 µM (inactive) | 28 µM (inactive) | > 100 µM (inactive) | > 100 µM (inactive) | > 100 µM (inactive) | > 100 µM (inactive) | > 100 µM (inactive) | > 100 µM (inactive) | > 100 µM (inactive) |
| O=P1(c2ccccc2)C(c2ccccc2)=CC=C1c1ccccc1 | 59 µM (inactive) | 30.7 µM (inactive) | 20.9 µM (inactive) | 2.28 µM (inactive) | 39.2 µM (inactive) | 11.9 µM (inactive) | 28 µM (inactive) | 28.4 µM (inactive) | 15 µM (inactive) | 44.4 µM (inactive) | 12.4 µM (inactive) | 25.2 µM (inactive) | > 100 µM (inactive) | 26 µM (inactive) | 14.6 µM (inactive) | 24.2 µM (inactive) | 12.3 µM (inactive) | 10.3 µM (inactive) | 11.3 µM (inactive) |
| c1cc2nnc1SCCSCCSc1ccc(nn1)SCCSCCS2 | 25.4 µM (inactive) | > 100 µM (inactive) | > 100 µM (inactive) | > 100 µM (inactive) | > 100 µM (inactive) | > 100 µM (inactive) | > 100 µM (inactive) | > 100 µM (inactive) | > 100 µM (inactive) | 31 µM (inactive) | > 100 µM (inactive) | > 100 µM (inactive) | > 100 µM (inactive) | > 100 µM (inactive) | > 100 µM (inactive) | > 100 µM (inactive) | > 100 µM (inactive) | > 100 µM (inactive) | > 100 µM (inactive) |
